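Where inhibition never reached the appropriate level, the endpoint shown equals the highest concentration tested. Otherwise, values were interpolated linearly from a five-concentration, 48-hour dose response in 96-well plates. Here, GI50 denotes the concentration required for 50% inhibition of growth.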 Active and inactive are the calls of the source. No stated cut-off is given here; in the data, active = GI50 up to about 1.1 µM and inactive = higher.
What was measured:
Experiment in all cases: NCI-60 cell line screen, 48 h
A498 = test system: A498
CAKI-1 = test system: CAKI-1
CCRF-CEM = test system: CCRF-CEM
EKVX = test system: EKVX
MOLT-4 = test system: MOLT-4
NCI-H522 = test system: NCI-H522
OVCAR-8 = test system: OVCAR-8
SF-295 = test system: SF-295
SK-MEL-28 = test system: SK-MEL-28
SK-MEL-2 = test system: SK-MEL-2
786-0 = test system: 786-0
HCC 2998 = test system: HCC 2998
HOP-62 = test system: HOP-62
UACC-257 = test system: UACC-257
SR = test system: SR
MCF7 = test system: MCF7
NCI/ADR-RES = test system: NCI/ADR-RES

Measured: GI50

C=C1c2c(cc3c(c2O)c(=O)c2ccccc2n3C)OC1(C)C
inactive: A498 30.9 µM | CAKI-1 > 100 µM | CCRF-CEM > 100 µM | EKVX > 100 µM | MOLT-4 > 100 µM | NCI-H522 2.95 µM | OVCAR-8 52.6 µM | SF-295 22.5 µM | SK-MEL-28 > 100 µM | SK-MEL-2 40.3 µM

COC(=O)CC(CC(=O)C(=O)OC)C(=O)OC (stereo unspecified)
inactive: 786-0 > 100 µM | A498 > 100 µM | CAKI-1 > 100 µM | CCRF-CEM > 100 µM | EKVX > 100 µM | HCC 2998 > 100 µM | HOP-62 > 100 µM | MOLT-4 > 100 µM | OVCAR-8 > 100 µM | SF-295 > 100 µM | SK-MEL-28 > 100 µM | SK-MEL-2 > 100 µM | UACC-257 > 100 µM

O=C1CCCC(=O)N1CCc1c[nH]c2ccccc12
inactive: 786-0 > 100 µM | A498 77.3 µM | CAKI-1 > 100 µM | CCRF-CEM > 100 µM | EKVX > 100 µM | HCC 2998 > 100 µM | HOP-62 > 100 µM | MOLT-4 > 100 µM | OVCAR-8 > 100 µM | SF-295 > 100 µM | SK-MEL-28 > 100 µM | SK-MEL-2 > 100 µM | SR > 100 µM | UACC-257 > 100 µM

O=C(NC(Cc1ccc(I)cc1)C(=O)O)c1ccc(I)cc1 (stereo unspecified)
inactive: A498 > 100 µM | CAKI-1 > 100 µM | CCRF-CEM 48.2 µM | EKVX > 51.2 µM | HCC 2998 > 41.7 µM | HOP-62 72.3 µM | MCF7 > 50.4 µM | MOLT-4 51.5 µM | NCI-H522 38.8 µM | NCI/ADR-RES > 100 µM | OVCAR-8 > 74.8 µM | SF-295 > 100 µM | SK-MEL-28 53.3 µM | SK-MEL-2 > 80.4 µM | UACC-257 > 100 µM

COc1ccccc1C1C(Cl)C(=O)N1n1cnc2ccccc2c1=O (stereo unspecified)
inactive: 786-0 > 100 µM | CAKI-1 > 100 µM | CCRF-CEM > 100 µM | EKVX > 100 µM | HCC 2998 > 100 µM | HOP-62 > 100 µM | MOLT-4 > 100 µM | NCI-H522 > 100 µM | OVCAR-8 > 100 µM | SF-295 > 100 µM | SK-MEL-28 > 100 µM | SK-MEL-2 > 100 µM | SR 85.9 µM | UACC-257 > 100 µM
